Assay results: patent US6525001B1, “Substituted pyrimidine and pyridine herbicides” (Mid-American Commercialization Corporation, priority 1997, dated 2003)

How the values were obtained:
Type in all cases: in vivo
Design in all cases: key: 0 is no effect; 10 is complete control
[1] = tested on: broadleaf signalgrass (Brachiaria decumbens); assay: Test B pre-/postemergence
Source text: (§1) Seeds of bedstraw (Galium aparine), blackgrass (Alopecurus myosuroides), broadleaf signalgrass (Brachiaria decumbens), cocklebur (Xanthium strumarium), corn (Zea mays), crabgrass (Digitaria sanguinalis), giant foxtail (Setaria faberii), lambsquarters (Chenopodium album), momingglory (Ipomoea hederacea), pigweed (Amaranthus retroflexus), rape (Brassica napus), soybean (Glycine max), sugar beet (Beta vulgaris), velvetleaf (Abutilon theophrasti), wheat (Triticum aestivum), wild oat (Avena fatua) and purple nutsedge (Cyperus rotundus) tubers were planted and treated preemergence with test chemicals formulated in a non-phytotoxic solvent mixture which included a surfactant.
(§2) At the same time, these crop and weed species were also treated with postemergence applications of test chemicals formulated in the same manner. Plants ranged in height from 2 to 18 cm (1- to 4-leaf stage) for postemergence treatments. Plant species in the flood test consisted of rice (Oryza sativa), smallflower flatsedge (Cyperus difformis), duck salad (Heteranthera limosa) and bamyardgrass (Echinochloa crus-galli) grown to the 2-leaf stage for testing. Treated plants and controls were maintained in a greenhouse for twelve to sixteen days, after which all species were compared to controls and visually evaluated. Plant response ratings, summarized in Table B, are based on a scale of 0 to 10 where 0 is no effect and 10 is complete control. A dash (−) response means no test result.

wild oat (Avena fatua) = assay: Test B pre-/postemergence
Source text: as §1, §2

corn (Zea mays) = assay: Test B pre-/postemergence
Source text: as §1, §2

[2] = tested on: wheat (Triticum aestivum); assay: Test B pre-/postemergence
Source text: as §1, §2

rape (Brassica napus) = assay: Test B pre-/postemergence
Source text: as §1, §2

[3] = tested on: velvetleaf (Abutilon theophrasti); assay: Test B pre-/postemergence
Source text: as §1, §2

[4] = tested on: cocklebur (Xanthium strumarium); assay: Test B pre-/postemergence
Source text: as §1, §2

[5] = tested on: pigweed (Amaranthus retroflexus); assay: Test B pre-/postemergence
Source text: as §1, §2

[6] = tested on: blackgrass (Alopecurus myosuroides); assay: Test B pre-/postemergence
Source text: as §1, §2

[7] = tested on: momingglory (Ipomoea hederacea); assay: Test B pre-/postemergence
Source text: as §1, §2

soybean (Glycine max) = assay: Test B pre-/postemergence
Source text: as §1, §2

[8] = tested on: bedstraw (Galium aparine); assay: Test B pre-/postemergence
Source text: as §1, §2

[9] = tested on: giant foxtail (Setaria faberii); assay: Test B pre-/postemergence
Source text: as §1, §2

[10] = tested on: crabgrass (Digitaria sanguinalis); assay: Test B pre-/postemergence
Source text: as §1, §2

[11] = tested on: sugar beet (Beta vulgaris); assay: Test B pre-/postemergence
Source text: as §1, §2

[12] = tested on: duck salad (Heteranthera limosa); assay: Test B flood test
Procedure: as §2

[13] = tested on: bamyardgrass (Echinochloa crus-galli); assay: Test B flood test
Procedure: as §2

[14] = tested on: smallflower flatsedge (Cyperus difformis); assay: Test B flood test
Procedure: as §2

rice (Oryza sativa) = assay: Test B flood test
Procedure: as §2

[15] = Preemergence, Rate 62 g/ha, scale of 0 to 10
[16] = Rate 62 g/ha, Postemergence (flood test)
[17] = Rate 125 g/ha, Postemergence section (flood test species)
[18] = Rate 250 g/ha, Postemergence (flood test species)

CCc1cnc(-n2ccc(C(F)(F)F)n2)nc1C(=O)c1cccc(C#N)c1 [Compound 72]
B. signalgrass plant response rating ([1]; Rate 62 g/ha, Postemergence): 2 | B. signalgrass plant response rating ([1]; Rate 62 g/ha, Preemergence): 1 | B. signalgrass plant response rating ([1]; Rate 125 g/ha, Postemergence): 4 | Plant response rating, B. signalgrass ([1]; Rate 125 g/ha, Preemergence): 2 | Plant response rating, B. signalgrass ([1]; Rate 250 g/ha, Postemergence): 6 | Plant response rating, B. signalgrass ([1]; Rate 250 g/ha, Preemergence): 7 | Plant response rating, Wild oats (wild oat (Avena fatua); [15]): 1 | Wild oats plant response rating (wild oat (Avena fatua); Rate 62 g/ha, Postemergence): 2 | Wild oats plant response rating (wild oat (Avena fatua); Rate 125 g/ha, Postemergence): 2 | Plant response rating, Wild oats (wild oat (Avena fatua); Rate 125 g/ha, Preemergence): 2 | Plant response rating, Wild oats (wild oat (Avena fatua); Rate 250 g/ha, Postemergence): 4 | Plant response rating, Wild oats (wild oat (Avena fatua); Rate 250 g/ha, Preemergence): 3 | Plant response rating, Corn (corn (Zea mays); [15]): 3 | Corn plant response rating (corn (Zea mays); Rate 62 g/ha, Postemergence): 2 | Corn plant response rating (corn (Zea mays); Rate 125 g/ha, Postemergence): 3 | Plant response rating, Corn (corn (Zea mays); Rate 125 g/ha, Preemergence): 4 | Plant response rating, Corn (corn (Zea mays); Rate 250 g/ha, Postemergence): 5 | Plant response rating, Corn (corn (Zea mays); Rate 250 g/ha, Preemergence): 5 | Plant response rating, Wheat [2, 15]: 0 | Wheat plant response rating ([2]; Rate 62 g/ha, Postemergence): 3 | Wheat plant response rating ([2]; Rate 125 g/ha, Postemergence): 3 | Plant response rating, Wheat ([2]; Rate 125 g/ha, Preemergence): 0 | Plant response rating, Wheat ([2]; Rate 250 g/ha, Postemergence): 4 | Plant response rating, Wheat ([2]; Rate 250 g/ha, Preemergence): 3 | Plant response rating, Rape (rape (Brassica napus); [15]): 4 | Rape plant response rating (rape (Brassica napus); Rate 62 g/ha, Postemergence): 3 | Rape plant response rating (rape (Brassica napus); Rate 125 g/ha, Postemergence): 7 | Plant response rating, Rape (rape (Brassica napus); Rate 125 g/ha, Preemergence): 5 | Plant response rating, Rape (rape (Brassica napus); Rate 250 g/ha, Postemergence): 7 | Plant response rating, Rape (rape (Brassica napus); Rate 250 g/ha, Preemergence): 9 | Plant response rating, Velvetleaf [3, 15]: 3 | Velvetleaf plant response rating ([3]; Rate 62 g/ha, Postemergence): 2 | Velvetleaf plant response rating ([3]; Rate 125 g/ha, Postemergence): 3 | Plant response rating, Velvetleaf ([3]; Rate 125 g/ha, Preemergence): 4 | Plant response rating, Velvetleaf ([3]; Rate 250 g/ha, Postemergence): 5 | Plant response rating, Velvetleaf ([3]; Rate 250 g/ha, Preemergence): 7 | Plant response rating, Cocklebur [4, 15]: 0 | Cocklebur plant response rating ([4]; Rate 62 g/ha, Postemergence): 3 | Cocklebur plant response rating ([4]; Rate 125 g/ha, Postemergence): 4 | Plant response rating, Cocklebur ([4]; Rate 125 g/ha, Preemergence): 0 | Plant response rating, Cocklebur ([4]; Rate 250 g/ha, Postemergence): 4 | Plant response rating, Cocklebur ([4]; Rate 250 g/ha, Preemergence): 0 | Plant response rating, Redroot pigweed [5, 15]: 7 | Redroot pigweed plant response rating ([5]; Rate 62 g/ha, Postemergence): 8 | Redroot pigweed plant response rating ([5]; Rate 125 g/ha, Postemergence): 9 | Plant response rating, Redroot pigweed ([5]; Rate 125 g/ha, Preemergence): 9 | Plant response rating, Redroot pigweed ([5]; Rate 250 g/ha, Postemergence): 9 | Plant response rating, Redroot pigweed ([5]; Rate 250 g/ha, Preemergence): 9 | Plant response rating, Blackgrass [6, 15]: 1 | Blackgrass plant response rating ([6]; Rate 62 g/ha, Postemergence): 4 | Blackgrass plant response rating ([6]; Rate 125 g/ha, Postemergence): 5 | Plant response rating, Blackgrass ([6]; Rate 125 g/ha, Preemergence): 1 | Plant response rating, Blackgrass ([6]; Rate 250 g/ha, Postemergence): 5 | Plant response rating, Blackgrass ([6]; Rate 250 g/ha, Preemergence): 4 | Plant response rating, Morningglory [7, 15]: 2 | Morningglory plant response rating ([7]; Rate 125 g/ha, Postemergence): 4 | Plant response rating, Morningglory ([7]; Rate 125 g/ha, Preemergence): 3 | Plant response rating, Morningglory ([7]; Rate 250 g/ha, Postemergence): 4 | Plant response rating, Morningglory ([7]; Rate 250 g/ha, Preemergence): 8 | Plant response rating, Soybean (soybean (Glycine max); [15]): 0 | Soybean plant response rating (soybean (Glycine max); Rate 62 g/ha, Postemergence): 2 | Soybean plant response rating (soybean (Glycine max); Rate 125 g/ha, Postemergence): 2 | Plant response rating, Soybean (soybean (Glycine max); Rate 125 g/ha, Preemergence): 3 | Plant response rating, Soybean (soybean (Glycine max); Rate 250 g/ha, Postemergence): 5 | Plant response rating, Soybean (soybean (Glycine max); Rate 250 g/ha, Preemergence): 3 | Plant response rating, Bedstraw [8, 15]: 0 | Plant response rating, Bedstraw ([8]; Rate 250 g/ha, Postemergence): 4 | Plant response rating, Bedstraw ([8]; Rate 250 g/ha, Preemergence): 5 | Plant response rating, Giant foxtail [9, 15]: 5 | Giant foxtail plant response rating ([9]; Rate 62 g/ha, Postemergence): 5 | Giant foxtail plant response rating ([9]; Rate 125 g/ha, Postemergence): 6 | Plant response rating, Giant foxtail ([9]; Rate 125 g/ha, Preemergence): 5 | Plant response rating, Giant foxtail ([9]; Rate 250 g/ha, Postemergence): 7 | Plant response rating, Giant foxtail ([9]; Rate 250 g/ha, Preemergence): 7 | Plant response rating, Crabgrass [10, 15]: 6 | Crabgrass plant response rating ([10]; Rate 62 g/ha, Postemergence): 4 | Crabgrass plant response rating ([10]; Rate 125 g/ha, Postemergence): 6 | Plant response rating, Crabgrass ([10]; Rate 125 g/ha, Preemergence): 9 | Plant response rating, Crabgrass ([10]; Rate 250 g/ha, Postemergence): 8 | Plant response rating, Crabgrass ([10]; Rate 250 g/ha, Preemergence): 9 | Plant response rating, Sugarbeets [11, 15]: 8 | Sugarbeets plant response rating ([11]; Rate 62 g/ha, Postemergence): 9 | Sugarbeets plant response rating ([11]; Rate 125 g/ha, Postemergence): 9 | Plant response rating, Sugarbeets ([11]; Rate 125 g/ha, Preemergence): 10 | Plant response rating, Sugarbeets ([11]; Rate 250 g/ha, Postemergence): 9 | Plant response rating, Sugarbeets ([11]; Rate 250 g/ha, Preemergence): 10 | Ducksalad plant response rating [12, 16]: 2 | Ducksalad plant response rating [12, 17]: 2 | Plant response rating, Ducksalad [12, 18]: 3 | Barnyardgrass plant response rating [13, 16]: 2 | Barnyardgrass plant response rating [13, 17]: 3 | Plant response rating, Barnyardgrass [13, 18]: 6 | S. Flatsedge plant response rating [14, 16]: 3 | S. Flatsedge plant response rating [14, 17]: 3 | Plant response rating, S. Flatsedge [14, 18]: 4 | Rice plant response rating (rice (Oryza sativa); [16]): 0 | Rice plant response rating (rice (Oryza sativa); [17]): 0 | Plant response rating, Rice (rice (Oryza sativa); [18]): 2
